In test [1] the test system is Mycosphaerella graminicola; anamorph: Septoria tritici (SEPTTR). Briefly: Leaf blotch of wheat (SEPTTR) whole-plant fungicidal test. Conditions: Zymoseptoria tritici, topical; for pest or weed control at 100 ppm: high volume application; for pest or weed control at 121.5 g/ha: low volume (track spray) application, 121.5 g/H. Type of test: in vivo. The method, then: (§1) All fungicides were evaluated using the aforementioned method for their activity vs. all target diseases, unless stated otherwise. Wheat leaf blotch and brown rust activity were also evaluated using track spray applications, in which case the fungicides were formulated as EC formulations, containing 0.1% Trycol 5941 in the spray solutions. Wheat plants (variety Yuma) were grown from seed in a greenhouse in 50% mineral soil/50% soil-less Metro mix until the first leaf was fully emerged, with 7-10 seedlings per pot. These plants were inoculated with an aqueous spore suspension of Septoria tritici either prior to or after fungicide treatments. After inoculation the plants were kept in 100% relative humidity (one day in a dark dew chamber followed by two to three days in a lighted dew chamber at 20° C.) to permit spores to germinate and infect the leaf. The plants were then transferred to a greenhouse set at 20° C. for disease to develop. When disease symptoms were fully expressed on the 1st leaves of untreated plants, infection levels were assessed on a scale of 0 to 100 percent disease severity. Percent disease control was calculated using the ratio of disease severity on treated plants relative to untreated plants.

Test [2] deals with Puccinia triticina; synonym: Puccinia recondita f. sp. tritici (PUCCRT). Briefly: Wheat brown rust (PUCCRT) whole-plant fungicidal test. Conditions: topical; for pest or weed control at 100 ppm: high volume application; for pest or weed control at 121.5 g/ha: low volume (track spray) application, 121.5 g/H. Format: in vivo. The method, then:
as §1, with “plants. Wheat plants (variety Yuma) were grown from seed in a greenhouse in 50% mineral soil/50% soil-less Metro mix until the first leaf was fully emerged, with 7-10 seedlings per pot. These plants were inoculated with an aqueous spore suspension of Puccinia triticina either prior to or after fungicide treatments. […] The plants were then transferred to a greenhouse set at 24° C. for disease to develop. Fungicide formulation, application and disease assessment followed the procedures as described in the Example A.” for “plants.”

The mark [3] stands for this setting: 24 h, 1 Day Protectant, read-out: High Volume activity at 100 ppm SEPTTR 1DP (% disease control rating).
[4] abbreviates: 24 h, 1 Day Protectant, read-out: Low Volume activity at 121.5 g/H SEPTTR 1DP (% disease control rating).
[5] abbreviates: 72 h, 3 Day Curative, read-out: High Volume activity at 100 ppm SEPTTR 3DC (% disease control rating).
[6] abbreviates: 72 h, 3 Day Curative, read-out: Low Volume activity at 121.5 g/H SEPTTR 3DC (% disease control rating).
The mark [7] stands for this setting: 24 h, 1 Day Protectant, read-out: High Volume activity at 100 ppm PUCCRT 1DP (% disease control rating).
Where [8] appears, read: 24 h, 1 Day Protectant, read-out: Low Volume activity at 121.5 g/H PUCCRT 1DP (% disease control rating).
Where [9] appears, read: 72 h, 3 Day Curative, read-out: High Volume activity at 100 ppm PUCCRT 3DC (% disease control rating).
[10] abbreviates: 72 h, 3 Day Curative, read-out: Low Volume activity at 121.5 g/H PUCCRT 3DC (% disease control rating).

The structures appear in SMILES notation. Read-outs that look alike come from different tables or passages of the source.

On to `CCCC[C@@H]1[C@@H](Cc2ccccc2)CCC[C@H](NC(=O)c2nccc(OC)c2OC(C)=O)C(=O)O[C@H]1C` [Compound 1, 2-(((3S,7R,8R,9S)-7-benzyl-8-butyl-9-methyl-2-oxooxonan-3-yl)carbamoyl)-4-methoxypyridin-3-yl acetate], for which the pest or weed control at 100 ppm in test [1] (setting [3]), in test [1] (setting [5]), in test [2] (setting [7]) and in test [2] (setting [9]) was greater than 70% each time. The pest or weed control at 121.5 g/ha in test [1] (setting [4]) is greater than 70%; in test [1] (setting [6]) it was greater than 70%; in test [2] (setting [8]) it was greater than 70%; in test [2] (setting [10]), less than 70%.
As to `CCCC[C@@H]1[C@@H](Cc2ccccc2)CCC[C@H](NC(=O)c2nccc(OC)c2OCOC(C)=O)C(=O)O[C@H]1C` [Compound 2, ((2-(((3S,7R,8R,9S)-7-benzyl-8-butyl-9-methyl-2-oxooxonan-3-yl)carbamoyl)-4-methoxypyridin-3-yl)oxy)methyl acetate], the pest or weed control at 100 ppm in test [1] (setting [3]), in test [1] (setting [5]), in test [2] (setting [7]) and in test [2] (setting [9]) was greater than 70% in each case. The pest or weed control at 121.5 g/ha in test [1] (setting [4]) was greater than 70%; in test [1] (setting [6]) it was greater than 70%; in test [2] (setting [8]), greater than 70%; in test [2] (setting [10]), less than 70%.
For `COc1ccnc(C(=O)N[C@H]2CCC[C@H](CCC(C)C)[C@@H](Cc3ccccc3)[C@H](C)OC2=O)c1OC(C)=O` [Compound 4], the pest or weed control at 121.5 g/ha is greater than 70% in test [1] (setting [4]), greater than 70% in test [1] (setting [6]), greater than 70% in test [2] (setting [8]) and less than 70% in test [2] (setting [10]).
Turning to `COc1ccnc(C(=O)N[C@H]2CCC[C@H](Cc3ccccc3)[C@@H](Cc3ccccc3)[C@H](C)OC2=O)c1OC(C)=O` [Compound 5], the pest or weed control at 121.5 g/ha in test [1] (setting [4]), in test [1] (setting [6]), in test [2] (setting [8]) and in test [2] (setting [10]) was greater than 70% each time.
Regarding `COc1ccnc(C(=O)N[C@H]2CCC[C@H](Cc3ccccc3)[C@@H](Cc3ccccc3)[C@H](C)OC2=O)c1OCOC(C)=O` [Compound 6], the pest or weed control at 121.5 g/ha in test [1] (setting [4]), in test [1] (setting [6]), in test [2] (setting [8]) and in test [2] (setting [10]) was greater than 70% throughout.
On to `COc1ccnc(C(=O)N[C@H]2CCC[C@H](Cc3ccccc3)[C@@H](Cc3ccccc3)[C@H](C)OC2=O)c1OCOC(=O)C(C)C` [Compound 7, ((2-(((3S,7R,8R,9S)-7,8-dibenzyl-9-methyl-2-oxooxonan-3-yl)carbamoyl)-4-methoxypyridin-3-yl)oxy)methyl isobutyrate], for which the pest or weed control at 121.5 g/ha in test [1] (setting [4]), in test [1] (setting [6]), in test [2] (setting [8]) and in test [2] (setting [10]) was greater than 70% throughout.
As for `CCOCC(=O)OCOc1c(OC)ccnc1C(=O)N[C@H]1CCC[C@H](Cc2ccccc2)[C@@H](Cc2ccccc2)[C@H](C)OC1=O` [Compound 8, ((2-(((3S,7R,8R,9S)-7,8-dibenzyl-9-methyl-2-oxooxonan-3-yl)carbamoyl)-4-methoxypyridin-3-yl)oxy)methyl 2-ethoxyacetate], the pest or weed control at 121.5 g/ha in test [1] (setting [4]) was greater than 70%; in test [1] (setting [6]) it was greater than 70%; in test [2] (setting [8]) it was greater than 70%; in test [2] (setting [10]), less than 70%.
On to `COc1ccnc(C(=O)N[C@H]2CCC[C@H](Cc3ccccc3)[C@@H](C3CCCC3)[C@H](C)OC2=O)c1OC(C)=O` [Compound 9], for which the pest or weed control at 121.5 g/ha is greater than 70% in test [1] (setting [4]), greater than 70% in test [1] (setting [6]), greater than 70% in test [2] (setting [8]) and less than 70% in test [2] (setting [10]).
For `COc1ccnc(C(=O)N[C@H]2CCC[C@H](Cc3ccccc3)[C@@H](C3CCCC3)[C@H](C)OC2=O)c1OCOC(C)=O` [Compound 10], the pest or weed control at 121.5 g/ha in test [1] (setting [4]), in test [1] (setting [6]), in test [2] (setting [8]) and in test [2] (setting [10]) was greater than 70% throughout.
As to `COc1ccnc(C(=O)N[C@H]2CCC[C@H](Cc3ccc(Cl)cc3)[C@@H](CC(C)C)[C@H](C)OC2=O)c1OCOC(C)=O` [Compound 12], the pest or weed control at 121.5 g/ha was greater than 70% in test [1] (setting [4]), greater than 70% in test [1] (setting [6]), greater than 70% in test [2] (setting [8]) and less than 70% in test [2] (setting [10]).
For the compound `COc1ccnc(C(=O)N[C@H]2CCC[C@H](Cc3ccc(Cl)cc3)[C@@H](CC(C)C)[C@H](C)OC2=O)c1OC(C)=O` [Compound 13], the pest or weed control at 121.5 g/ha is greater than 70% in test [1] (setting [4]), greater than 70% in test [1] (setting [6]), greater than 70% in test [2] (setting [8]) and less than 70% in test [2] (setting [10]).
For the compound `COc1ccnc(C(=O)N[C@H]2CCC[C@H](Cc3ccccc3)[C@@H](CCc3ccccc3)[C@H](C)OC2=O)c1OCOC(C)=O` [Compound 15], the pest or weed control at 121.5 g/ha in test [1] (setting [4]) is greater than 70%; in test [1] (setting [6]), greater than 70%; in test [2] (setting [8]), greater than 70%; in test [2] (setting [10]) it was less than 70%.
As for `CCOCC(=O)OCOc1c(OC)ccnc1C(=O)N[C@H]1CCC[C@H](Cc2ccccc2)[C@@H](CCc2ccccc2)[C@H](C)OC1=O` [Compound 16], the pest or weed control at 121.5 g/ha in test [1] (setting [4]), in test [1] (setting [6]), in test [2] (setting [8]) and in test [2] (setting [10]) was greater than 70% throughout.
For the compound `COc1ccnc(C(=O)N[C@H]2CCC[C@H](Cc3ccccc3)[C@@H](CCc3ccccc3)[C@H](C)OC2=O)c1OCOC(=O)C(C)C` [Compound 17], the pest or weed control at 121.5 g/ha in test [1] (setting [4]) was greater than 70%; in test [1] (setting [6]), greater than 70%; in test [2] (setting [8]), greater than 70%; in test [2] (setting [10]), less than 70%.
For `COc1ccnc(C(=O)N[C@H]2CCC[C@H](Cc3ccccc3)[C@@H](CCc3ccccc3)[C@H](C)OC2=O)c1OC(C)=O` [Compound 18], the pest or weed control at 121.5 g/ha in test [1] (setting [4]) was greater than 70%; in test [1] (setting [6]), greater than 70%; in test [2] (setting [8]), less than 70%; in test [2] (setting [10]), less than 70%.
As for `CCOCC(=O)OCOc1c(OC)ccnc1C(=O)N[C@H]1CCC[C@H](Cc2ccc(Cl)cc2)[C@@H](Cc2ccccc2)[C@H](C)OC1=O` [Compound 20], the pest or weed control at 121.5 g/ha in test [1] (setting [4]) was greater than 70%; in test [1] (setting [6]), less than 70%; in test [2] (setting [8]) it was greater than 70%; in test [2] (setting [10]), greater than 70%.
Take `COc1ccnc(C(=O)N[C@H]2CCC[C@H](Cc3ccc(Cl)cc3)[C@@H](Cc3ccccc3)[C@H](C)OC2=O)c1OC(C)=O` [Compound 21]: the pest or weed control at 121.5 g/ha is greater than 70% in test [1] (setting [4]), less than 70% in test [1] (setting [6]), greater than 70% in test [2] (setting [8]) and less than 70% in test [2] (setting [10]).
On to `COc1ccnc(C(=O)N[C@H]2CCC[C@H](Cc3ccc(C(F)(F)F)cc3)[C@@H](CC(C)C)[C@H](C)OC2=O)c1OC(C)=O` [Compound 22], for which the pest or weed control at 121.5 g/ha in test [1] (setting [4]) is greater than 70%; in test [1] (setting [6]), less than 70%; in test [2] (setting [8]) it was greater than 70%; in test [2] (setting [10]), less than 70%.

(Values after patent US20150322051A1, “Macrocyclic picolinamides as fungicides” (Dow AgroSciences LLC, priority 2014, published 2015).)
